According to publication PMC8449414, “Rational design of ASCT2 inhibitors using an integrated experimental-computational approach” (Proceedings of the National Academy of Sciences of the …, 2021):

What was measured:
Type in all cases: cell-based
rASCT2 [1] = target: T1, rASCT2 (Rattus norvegicus, UniProt D3ZJ25); assay: Electrophysiology: inhibition of leak anion current in transfected HEK293 cells; conditions: for Km: substrate dose response of anion current, rat ASCT2-expressing HEK293 cells, read-out: apparent Km; for inhibition of the leak anion current (in words): concentration range tested up to 200 µM, Ki could not be obtained
T1 construct: expressed in transfected cells; host or cells: HEK293 (ATCC CRL-11268), transient transfection
T1 sequence (D3ZJ25 1-555): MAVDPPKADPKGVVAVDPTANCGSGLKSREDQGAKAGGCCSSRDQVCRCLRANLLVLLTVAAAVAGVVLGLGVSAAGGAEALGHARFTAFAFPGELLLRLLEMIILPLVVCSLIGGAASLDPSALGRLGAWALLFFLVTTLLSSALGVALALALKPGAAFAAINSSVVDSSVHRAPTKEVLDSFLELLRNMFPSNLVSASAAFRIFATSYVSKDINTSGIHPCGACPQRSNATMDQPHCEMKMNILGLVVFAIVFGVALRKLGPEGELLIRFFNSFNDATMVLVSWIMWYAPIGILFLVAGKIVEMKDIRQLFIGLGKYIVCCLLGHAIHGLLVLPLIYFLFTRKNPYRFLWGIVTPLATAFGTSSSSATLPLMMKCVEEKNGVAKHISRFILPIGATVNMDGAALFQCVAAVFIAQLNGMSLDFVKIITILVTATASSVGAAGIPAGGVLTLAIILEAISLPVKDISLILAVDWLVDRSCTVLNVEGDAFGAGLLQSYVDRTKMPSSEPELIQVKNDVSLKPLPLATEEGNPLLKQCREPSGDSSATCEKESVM
Method: (§1) Cell culture and transfection
(§2) Human embryonic kidney 293 (HEK293, ATCC CRL -11268) cells were cultured in DMEM media supplemented with 10% (v/v) fetal bovine serum (FBS), 2 mM glutamine, 1% penicillin streptomycin solution, 1 mM sodium pyruvate and non -essential amino acids. Cells were maintained at 370C in a fully humidified atmosphere containing 5% CO2. rASCT2, hASCT2, hASCT1, EAAT1, EAAT2, EAAT3, EAAT5 and YFP complementary DNAs were each used to transiently transfect HEK293 using POLYPLUS Jet-prime transfection reagent. Cells were analyzed using electrophysiological techniques 24-40 hours after transfection.
(§3) Electrophysiological techniques
(§4) Electrophysiological experiments were performed as described previously 1,2. Stock solutions of inhibitor was prepared in dimethyl sulfoxide (DMSO) up to 100 mM.
(§5) Dilutions to working concentrations were made using external buffer. The highest

hASCT2 = target: T2, hASCT2 (Homo sapiens, UniProt Q15758); assay: as above; conditions: HEK293 cells, 0 mV, 130 mM NaSCN internal, 140 mM NaCl external; No current = no inhibition of anion leak current up to highest concentration tested (§ 20-50, || 100-400, # 1500-2500 µM); read-out: Binding affinity Ki (apparent Ki)
T2 construct: expressed in transfected cells; host or cells: HEK293 (ATCC CRL-11268), transient transfection
T2 sequence (Q15758 1-541): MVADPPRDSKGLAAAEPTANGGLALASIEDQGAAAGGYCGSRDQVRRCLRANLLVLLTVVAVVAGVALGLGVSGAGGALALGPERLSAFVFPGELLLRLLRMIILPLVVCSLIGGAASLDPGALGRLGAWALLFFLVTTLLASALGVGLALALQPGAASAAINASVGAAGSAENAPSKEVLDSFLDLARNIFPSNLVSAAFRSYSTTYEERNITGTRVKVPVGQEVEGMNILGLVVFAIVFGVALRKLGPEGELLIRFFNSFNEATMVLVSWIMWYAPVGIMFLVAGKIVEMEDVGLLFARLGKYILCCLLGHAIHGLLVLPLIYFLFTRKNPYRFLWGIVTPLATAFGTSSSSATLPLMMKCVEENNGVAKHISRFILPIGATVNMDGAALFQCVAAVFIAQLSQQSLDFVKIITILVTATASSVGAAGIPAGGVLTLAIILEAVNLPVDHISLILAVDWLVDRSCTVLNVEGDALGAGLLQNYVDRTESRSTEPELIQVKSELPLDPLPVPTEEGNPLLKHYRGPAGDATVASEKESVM
Method: as §1, §2, §3, §4, §5

rASCT2 [2] = target: T1, rASCT2; assay: Inhibitor dissociation kinetics by ligand displacement with alanine (rapid solution exchange); conditions: 5 mM alanine rapidly applied, no inhibitor (control), 0 mV
Method: Fig. 2. […] (A) Electrophysiological recordings obtained after application of alanine (red trace) and increasing concentrations of Lc-BPE (black traces). The times of application of alanine or Lc-BPE are shown by a gray bar (top). (B and C) Lc-BPE inhibitor dose–response relationships for rASCT2 and hASCT2, respectively. […] Currents were normalized to the current recorded after application of 10 µM inhibitor concentration. (D) Inhibition of glutamine uptake (5 µM external concentration) in the presence of varying concentration of Lc-BPE and 5 µM glutamine measured in proteoliposomes reconstituted with purified hASCT2. […] Errors bars represent SEM from at least two biologically independent measurements. (E) Current recorded after rapid solution exchange from extracellular buffer (control, gray bar, black trace) to a solution containing buffer + 5 mM alanine (white bar). For the red trace, the cell was preincubated with 10 µM Lc-BPE (red bar, red trace) followed by rapid application of 5 mM alanine. All current recordings were performed at 0 mV in the presence of 130 mM NaSCN internal and 140 mM NaCl external (homoexchange) solutions. […]
To test this, we measured the dissociation kinetics of Lc-BPE using a ligand displacement approach. First, rASCT2-expressing cells were preincubated with a saturating solution of Lc-BPE (10 µM), and subsequently the inhibitor was displaced using a supersaturating concentration of the substrate L-alanine (5 mM) (Fig. 2 E and F).

SMILES	Km (rASCT2 [1]; 0 mV) [µM]	inhibition of the leak anion current (in words) (rASCT2 [1])	further results
NC(=O)CC[C@H](N)C(=O)O [glutamine, L-glutamine, reference compound]	233 ± 41	–	–
O=C(O[C@H]1CN[C@@H](C(=O)O)C1)c1ccc(-c2ccccc2)cc1 [Dc-BPE]	–	too small at high compound concentrations	–
O=C(O[C@H]1CN[C@H](C(=O)O)C1)c1ccc(-c2ccccc2)cc1 [Lt-BPE]	–	–	Ki (hASCT2): 205 ± 27 µM; Ki (rASCT2 [1]; HEK293 cells, 0 mV, 130 mM NaSCN internal, 140 mM NaCl external, No current = no inhibition of anion leak current up to highest concentration tested (§ 20-50, || 100-400, # 1500-2500 µM), read-out: Binding affinity Ki (apparent Ki)): 232 ± 44 µM
C[C@H](N)C(=O)O [alanine, L-alanine, reference compound]	318 ± 17	–	rate constant of the current rise (rASCT2 [2]): 24.6 ± 5.2 s⁻¹; rate constant of the current rise (rASCT2 [2]; listed as Alanine): 24 s⁻¹
O=C(O[C@@H]1CN[C@@H](C(=O)O)C1)c1ccc(-c2ccccc2)cc1 [Dt-BPE]	–	unspecific	–
